Source: ChEMBL document CHEMBL5321234, “Discovery of Thieno[3,2-d]pyrimidine derivatives as potent and selective inhibitors of ataxia telangiectasia mutated and Rad3 related (ATR) kinase” (Eur J Med Chem, 2023)

Legend:
[1] = target: Serine/threonine-protein kinase ATR (Homo sapiens, UniProt Q13535); test: Inhibition of ATR (unknown origin)
[2] = tested on: LoVo; test: Antiproliferative activity against human LoVo cells incubated for 72 hrs by CCK-8 assay; type: functional, cell-based
[3] = Cmax in ICR mouse at 1 mg/kg, iv measured upto 24 hrs by LC-MS/MS analysis; type: ADME, organism-based; parameters: time < 24 hrs, dose 1 mg/kg, route iv; details: in vivo
[4] = Clearance in ICR mouse at 1 mg/kg, iv measured upto 24 hrs by LC-MS/MS analysis; type: ADME, organism-based; details: ICR, in vivo
[5] = Tmax in ICR mouse at 1 mg/kg, iv measured upto 24 hrs by LC-MS/MS analysis; type: ADME, organism-based; details: in vivo
[6] = MRT (0 to infinity) in ICR mouse at 1 mg/kg, iv measured upto 24 hrs by LC-MS/MS analysis; type: ADME, organism-based; details: ICR, in vivo
[7] = Initial plasma concentration in ICR mouse at 1 mg/kg, iv measured upto 24 hrs by LC-MS/MS analysis; type: ADME, organism-based
[8] = AUC (0 to infinity) in ICR mouse at 1 mg/kg, iv measured upto 24 hrs by LC-MS/MS analysis; type: ADME, organism-based; parameters: dose 1 mg/kg, time < 24 hrs, route iv; details: in vivo
[9] = Tmax in ICR mouse at 10 mg/kg, po measured upto 24 hrs by LC-MS/MS analysis; type: ADME, organism-based; details: in vivo
[10] = Cmax in ICR mouse at 10 mg/kg, po measured upto 24 hrs by LC-MS/MS analysis; type: ADME, organism-based; parameters: time < 24 hrs, dose 10 mg/kg, route po; details: in vivo
[11] = MRT (0 to t) in ICR mouse at 10 mg/kg, po measured upto 24 hrs by LC-MS/MS analysis; type: ADME, organism-based; details: in vivo
[12] = Oral bioavailability in ICR mouse at 10 mg/kg measured upto 24 hrs by LC-MS/MS analysis; type: ADME, organism-based; details: in vivo
[13] = AUC (0 to t) in ICR mouse at 1 mg/kg, iv measured upto 24 hrs by LC-MS/MS analysis; type: ADME, organism-based; parameters: dose 1 mg/kg, time < 24 hrs, route iv; details: in vivo
[14] = Volume of distribution at steady state in ICR mouse at 1 mg/kg, iv measured upto 24 hrs by LC-MS/MS analysis; type: ADME, organism-based; details: ICR, in vivo, read-out: Vdss
[15] = MRT (0 to infinity) in ICR mouse at 10 mg/kg, po measured upto 24 hrs by LC-MS/MS analysis; type: ADME, organism-based; details: in vivo
[16] = AUC (0 to infinity) in ICR mouse at 10 mg/kg, po measured upto 24 hrs by LC-MS/MS analysis; type: ADME, organism-based; parameters: dose 10 mg/kg, time < 24 hrs, route po; details: in vivo
[17] = Half life in ICR mouse at 10 mg/kg, po measured upto 24 hrs by LC-MS/MS analysis; type: ADME, organism-based; details: in vivo
[18] = MRT (0 to t) in ICR mouse at 1 mg/kg, iv measured upto 24 hrs by LC-MS/MS analysis; type: ADME, organism-based; details: in vivo
[19] = AUC (0 to t) in ICR mouse at 10 mg/kg, po measured upto 24 hrs by LC-MS/MS analysis; type: ADME, organism-based; parameters: dose 10 mg/kg, time < 24 hrs, route po; details: in vivo
[20] = Half life in ICR mouse at 1 mg/kg, iv measured upto 24 hrs by LC-MS/MS analysis; type: ADME, organism-based; details: in vivo
[21] = tested on: HT-29; test: Antiproliferative activity against human HT-29 cells incubated for 72 hrs by CCK-8 assay; type: functional, cell-based; details: HT-29, 72 h
[22] = tested on: LoVo; test: Antitumor activity against human LoVo cells xenografted in BALB/c mouse assessed as tumor growth inhibition at 50 mg/kg, po bid 3 days on/4 days off administered for 21 consecutive days relative to control; type: functional; details: 504 h, time 21 day, read-out: TGI

Serine/threonine-protein kinase ATR, sequence (Q13535 whole entry): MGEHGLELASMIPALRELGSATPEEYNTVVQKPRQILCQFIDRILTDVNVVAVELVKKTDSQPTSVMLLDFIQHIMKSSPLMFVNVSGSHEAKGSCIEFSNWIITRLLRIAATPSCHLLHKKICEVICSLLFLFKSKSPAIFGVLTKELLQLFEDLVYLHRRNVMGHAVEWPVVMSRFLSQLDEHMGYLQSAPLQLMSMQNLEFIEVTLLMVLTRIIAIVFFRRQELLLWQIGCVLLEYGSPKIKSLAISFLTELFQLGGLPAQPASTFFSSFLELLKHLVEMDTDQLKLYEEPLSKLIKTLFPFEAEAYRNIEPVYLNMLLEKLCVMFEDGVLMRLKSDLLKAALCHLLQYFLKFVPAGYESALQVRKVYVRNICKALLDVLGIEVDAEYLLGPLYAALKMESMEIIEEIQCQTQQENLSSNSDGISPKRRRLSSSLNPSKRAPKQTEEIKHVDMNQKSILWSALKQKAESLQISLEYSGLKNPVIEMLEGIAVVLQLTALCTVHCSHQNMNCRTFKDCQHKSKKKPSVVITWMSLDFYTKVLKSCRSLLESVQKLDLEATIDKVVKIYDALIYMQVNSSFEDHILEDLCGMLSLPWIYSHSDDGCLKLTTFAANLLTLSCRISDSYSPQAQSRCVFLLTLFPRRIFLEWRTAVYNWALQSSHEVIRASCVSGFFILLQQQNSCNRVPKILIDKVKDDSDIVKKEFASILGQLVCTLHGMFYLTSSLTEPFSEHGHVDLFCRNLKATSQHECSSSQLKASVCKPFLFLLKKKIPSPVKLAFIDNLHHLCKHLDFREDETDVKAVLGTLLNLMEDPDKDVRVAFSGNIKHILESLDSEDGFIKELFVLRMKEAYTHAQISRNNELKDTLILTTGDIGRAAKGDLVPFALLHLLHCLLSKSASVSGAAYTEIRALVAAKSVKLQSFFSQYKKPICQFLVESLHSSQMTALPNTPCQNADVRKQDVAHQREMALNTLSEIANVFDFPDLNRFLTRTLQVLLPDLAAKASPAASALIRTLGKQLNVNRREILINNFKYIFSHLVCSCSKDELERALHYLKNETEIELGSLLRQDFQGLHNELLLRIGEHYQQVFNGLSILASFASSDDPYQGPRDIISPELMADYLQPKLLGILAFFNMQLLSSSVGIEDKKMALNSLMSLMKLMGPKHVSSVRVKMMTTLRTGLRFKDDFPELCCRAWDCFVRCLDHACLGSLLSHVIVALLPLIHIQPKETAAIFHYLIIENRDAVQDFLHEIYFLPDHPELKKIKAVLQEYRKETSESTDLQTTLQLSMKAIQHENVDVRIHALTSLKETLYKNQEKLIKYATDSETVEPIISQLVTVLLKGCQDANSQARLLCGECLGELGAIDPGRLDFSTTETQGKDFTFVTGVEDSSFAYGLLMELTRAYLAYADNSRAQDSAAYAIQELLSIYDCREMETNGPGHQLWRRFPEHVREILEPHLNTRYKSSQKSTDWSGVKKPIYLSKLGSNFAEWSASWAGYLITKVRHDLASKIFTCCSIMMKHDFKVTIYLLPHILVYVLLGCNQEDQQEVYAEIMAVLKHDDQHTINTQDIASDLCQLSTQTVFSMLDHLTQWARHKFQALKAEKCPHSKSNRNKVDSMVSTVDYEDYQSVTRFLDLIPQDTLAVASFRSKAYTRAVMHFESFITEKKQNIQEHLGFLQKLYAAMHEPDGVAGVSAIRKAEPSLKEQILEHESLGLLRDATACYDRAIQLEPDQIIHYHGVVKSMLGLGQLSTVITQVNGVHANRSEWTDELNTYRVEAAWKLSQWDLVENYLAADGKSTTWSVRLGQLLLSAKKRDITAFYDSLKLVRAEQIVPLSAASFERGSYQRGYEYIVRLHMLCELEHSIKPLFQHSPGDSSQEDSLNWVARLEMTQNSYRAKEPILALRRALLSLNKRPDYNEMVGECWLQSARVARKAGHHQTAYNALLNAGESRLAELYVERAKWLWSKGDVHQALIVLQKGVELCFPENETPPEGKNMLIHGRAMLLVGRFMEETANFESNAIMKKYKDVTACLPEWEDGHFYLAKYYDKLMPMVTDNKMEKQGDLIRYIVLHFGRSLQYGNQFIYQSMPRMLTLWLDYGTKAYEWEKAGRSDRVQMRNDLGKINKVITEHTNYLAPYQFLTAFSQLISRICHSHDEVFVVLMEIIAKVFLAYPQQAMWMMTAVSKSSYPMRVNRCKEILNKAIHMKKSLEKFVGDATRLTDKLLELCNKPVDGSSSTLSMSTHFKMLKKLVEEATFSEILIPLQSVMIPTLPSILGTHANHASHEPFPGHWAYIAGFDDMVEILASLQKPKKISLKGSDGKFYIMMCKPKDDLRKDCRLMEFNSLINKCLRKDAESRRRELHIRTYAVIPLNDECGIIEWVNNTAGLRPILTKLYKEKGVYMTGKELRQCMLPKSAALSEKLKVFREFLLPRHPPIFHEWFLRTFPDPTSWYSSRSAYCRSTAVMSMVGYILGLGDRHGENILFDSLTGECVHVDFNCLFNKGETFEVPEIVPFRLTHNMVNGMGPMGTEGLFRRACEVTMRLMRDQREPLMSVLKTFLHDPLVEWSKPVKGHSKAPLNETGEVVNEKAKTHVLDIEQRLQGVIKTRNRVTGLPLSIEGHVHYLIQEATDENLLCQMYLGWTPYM

| Structure (SMILES) | IC50 [1] [nM] | IC50 [2] [nM] | also measured |
| --- | --- | --- | --- |
| CC(O)c1csc2c(N3CCOC[C@H]3C)nc(-c3ccnc4[nH]ccc34)nc12 (stereo partly specified) | 19.2 | 694 | – |
| C[C@@H]1COCCN1c1nc(-n2c(N)nc3ccccc32)nc2c(S(C)(=O)=O)csc12 | 1 | 64 | Cmax [3]: 698 ng/mL; clearance [4]: 74.9 mL/min/kg; Tmax [5]: 4.8 min; MRT inf [6]: 10.8 min; C0 at 24 h [7]: 1080 ng/mL; AUC(0-inf) [8]: 226 ng·h/mL; Tmax [9]: 15 min; Cmax [10]: 994 ng/mL; MRT last at 24 h [11]: 61.8 min; bioavailability [12]: 32.8%; AUC(0-t) at 24 h [13]: 221 ng·h/mL; Vd [14]: 0.827 L/kg; MRT inf [15]: 65.4 min; AUC(0-inf) [16]: 741 ng·h/mL; half-life [17]: 74.4 min; MRT last at 24 h [18]: 9.6 min; AUC(0-t) at 24 h [19]: 735 ng·h/mL; half-life [20]: 7.8 min |
| C[C@@H]1COCCN1c1nc(-c2ccnc3[nH]ccc23)nc2c(S(C)(=N)=O)csc12 (stereo partly specified) | 5.4 | 398 | – |
| C[C@@H]1COCCN1c1nc(-n2c(N)nc3c(F)cccc32)nc2c(S(C)(=O)=O)csc12 | 2 | 381 | – |
| C[C@@H]1COCCN1c1nc(-c2cc(C(F)(F)F)cc3[nH]ccc23)nc2c(S(C)(=O)=O)csc12 | 2.9 | 527 | – |
| C[C@@H]1COCCN1c1nc(-n2c(C(F)F)nc3ccccc32)nc2c(S(C)(=O)=O)csc12 | 2.8 | 177 | – |
| CCP(=O)(CC)c1csc2c(N3CCOC[C@H]3C)nc(-n3c(NC)nc4ccccc43)nc12 | 6.2 | 371 | – |
| C[C@@H]1COCCN1c1nc(-c2c[nH]c3ccccc23)nc2c(S(C)(=O)=O)csc12 | 5 | 437 | – |
| C[C@@H]1COCCN1c1nc(-c2cc(Cl)cc3[nH]ccc23)nc2c(S(C)(=O)=O)csc12 | 3.6 | 119 | – |
| C[C@@H]1COCCN1c1nc(-n2c(=O)[nH]c3ccccc32)nc2c(S(C)(=O)=O)csc12 | 123 | > 10000 | – |
| CC(=O)Nc1nc2ccccc2n1-c1nc(N2CCOC[C@H]2C)c2scc(S(C)(=O)=O)c2n1 | 13.2 | 125 | – |
| C[C@@H]1COCCN1c1nc(-n2c(N)nc3ccc(F)cc32)nc2c(S(C)(=O)=O)csc12 | 3.7 | 360 | – |
| C[C@@H]1COCCN1c1nc(-c2cccc3c2CCN3)nc2c(S(C)(=O)=O)csc12 | 59.2 | 1890 | – |
| C[C@@H]1COCCN1c1nc(-c2ccnc3[nH]ccc23)nc2c(C(C)(C)O)csc12 | 7.9 | 221 | – |
| C[C@@H]1COCCN1c1nc(-c2c(F)ncc3[nH]ccc23)nc2c(S(C)(=O)=O)csc12 | 4.7 | 151 | – |
| C[C@@H]1COCCN1c1nc(-n2c(N(C)C)nc3ccccc32)nc2c(S(C)(=O)=O)csc12 | 233 | – | – |
| C[C@@H]1COCCN1c1nc(-n2c(N)nc3cc(F)ccc32)nc2c(S(C)(=O)=O)csc12 | 1.2 | 73 | – |
| C[C@@H]1COCCN1c1nc(-c2cc(F)cc3[nH]ccc23)nc2c(S(C)(=O)=O)csc12 | 3.1 | 259 | – |
| Cc1nc2ccccc2n1-c1nc(N2CCOC[C@H]2C)c2scc(S(C)(=O)=O)c2n1 | 3.5 | 635 | – |
| C[C@@H]1COCCN1c1nc(-c2ccnc3[nH]ccc23)nc2ccsc12 | 17.8 | 3340 | – |
| CC(=O)c1csc2c(N3CCOC[C@H]3C)nc(-c3ccnc4[nH]ccc34)nc12 | 35.3 | 931 | – |

| Structure (SMILES) | IC50 [1] [nM] | IC50 [2] [nM] | also measured |
| --- | --- | --- | --- |
| CCc1nc2ccccc2n1-c1nc(N2CCOC[C@H]2C)c2scc(S(C)(=O)=O)c2n1 | 3.8 | 657 | – |
| CSc1nc2ccccc2n1-c1nc(N2CCOC[C@H]2C)c2scc(S(C)(=O)=O)c2n1 | 113 | – | – |
| CNc1nc2ccccc2n1-c1nc(N2CCOC[C@H]2C)c2scc(S(=O)(=O)C3CC3)c2n1 | 2.8 | 107 | – |
| CNc1nc2ccccc2n1-c1nc(N2CCOC[C@H]2C)c2scc(S(=O)(=O)C(C)C)c2n1 | 5.7 | 224 | – |
| CNc1nc2ccccc2n1-c1nc(N2CCOC[C@H]2C)c2scc(S(C)(=N)=O)c2n1 (stereo partly specified) | 5.5 | 117 | – |
| CNc1nc2ccccc2n1-c1nc(N2CCOC[C@H]2C)c2scc(SC)c2n1 | 24.2 | 1500 | – |
| C[C@@H]1COCCN1c1nc(-c2cccc3[nH]ccc23)nc2c(S(C)(=O)=O)csc12 | 3.1 | 266 | – |
| CNc1nc2ccccc2n1-c1nc(N2CCOC[C@H]2C)c2scc([S+](C)[O-])c2n1 (stereo partly specified) | 8.5 | 264 | – |
| C[C@@H]1COCCN1c1nc(-c2ccnc3[nH]ccc23)nc2c(S(C)(=O)=O)csc12 | 5.8 | 111 | – |
| C[C@@H]1COCCN1c1nc(-c2ccnc3[nH]ccc23)nc2c(C(N)=O)csc12 | 31.5 | 370 | – |
| C[C@@H]1COCCN1c1nc(-c2cccc3[nH]ncc23)nc2c(S(C)(=O)=O)csc12 | 9.6 | 391 | – |
| CCS(=O)(=O)c1csc2c(N3CCOC[C@H]3C)nc(-n3c(NC)nc4ccccc43)nc12 | 4.5 | 89 | – |
| CCCS(=O)(=O)c1csc2c(N3CCOC[C@H]3C)nc(-n3c(NC)nc4ccccc43)nc12 | 16.8 | 626 | – |
| CNc1nc2ccccc2n1-c1nc(N2CCOC[C@H]2C)c2scc(P(C)(C)=O)c2n1 | 6.2 | 113 | – |
| C[C@@H]1COCCN1c1nc(-n2nnc3ccccc32)nc2c(S(C)(=O)=O)csc12 | 47 | – | – |
| C=C(C)c1csc2c(N3CCOC[C@H]3C)nc(-c3ccnc4[nH]ccc34)nc12 | 108 | – | – |
| C[C@@H]1COCCN1c1nc(-c2cccc3c2CC(=O)N3)nc2c(S(C)(=O)=O)csc12 | 159 | – | – |
| C[C@@H]1COCCN1c1nc(-n2cnc3ccccc32)nc2c(S(C)(=O)=O)csc12 | 2.3 | 648 | – |
| C[C@@H]1COCCN1c1nc(-c2ccnc3[nH]ccc23)nc2c(C#N)csc12 | 52.6 | 2510 | – |
| CC(C)n1c(=O)n(C)c2cnc3cc(F)c(-c4ccc(OCCCN5CCCCC5)nc4)cc3c21 [AZD-1390] | – | – | IC50 [21]: > 10000 nM |
| C[C@@H]1COCCN1c1cc(-c2ccnn2C)c2ccnc(-c3ccn[nH]3)c2n1 [ELIMUSERTIB] | – | 41 | inhibition in vivo at 50 mg/kg [22]: 65% |
